Results reported in patent US20150231209A1, “STIMULATION OF OVARIAN FOLLICLE DEVELOPMENT AND OOCYTE MATURATION” (THE BOARD OF TRUSTEES OF THE LELAND STANFORD JUNIOR …, priority 2012, published 2015).

Assays:
oocytes = settings: intrabursal treatment; cited from earlier work
ovarian grafts = assay: Ovarian grafting under kidney capsule of FSH-treated hosts: graft weights and follicle counting; format: in vivo, mice
Method: FIG. 3. Additive effects of Hippo signaling disruption and Akt stimulation promoted secondary follicle growth. A) Secondary follicles are responsive to IVA treatment. Secondary follicles (115 um in diameter) were isolated from mice at day 10 of age and cultured in vitro with the standard IVA protocol (first day with bPV(hopic) at 3 mM and 740YP at 15 ug/ml, followed by one more day with 740YP alone), followed by treatment with daily FSH (100 ng/ml) for two more days (IVA+FSH). The control groups were either treatment with media alone for four days or treated with the IVA reagent for two days followed by media alone (IVA alone). B) Ovarian fragmentation and IVA treatment led to additive effects on ovarian weight gain and secondary follicle growth. Paired ovaries from mice at day 10 of age were fragmented into three pieces. Fragments from one side were treated with the IVA protocol (bpV(hopic) at 30 uM and 740YP at 150 ng/ml for one day, followed by one more day with 740YP only) whereas fragments from the contralateral side were incubated in media alone. Ovarian fragments were then allo-transplanted into kidney capsules of adult ovariectomized mice with hosts injected with FSH (daily at 1 IU/animal). Five 5 days later, ovarian grafts were retrieved, fixed and weighted. Left panel: graft weights; right panel: Follicle dynamics of grafted ovarian fragments. Percentages of follicles at different stages were determined based on serial sections of grafts. C, Follicle dynamics before and after grafting of intact and fragmented murine ovaries with or without treatment with Akt stimulators. Left: total follicle numbers, Right: follicle dynamics. n=4. Same letter symbols indicate significant differences (p<0.05). D-F. Vitrified human cortical strips were thawed and fragmented into cubes before treatment with Akt stimulators for 2 days followed by grafting into immune-deficient mice for 4 weeks. D. Cortical strips before grafting. Arrow: a secondary follicle, arrowheads: primordial/primary follicles. Scale bar, 100 μm. E. A kidney graft in situ (left) and after isolation (right), showing an antral follicle. F. Histology of two large antral follicles with the side view of one showing an oocyte at the germinal vesicle stage (arrow). Scale bar, 1 mm. Mean±SEM; * p<0.05.
(§1) FIG. 7. Pre-treatment with verteporfin and CCN2 antibodies suppressed fragmentation-induced ovarian growth. A, Pretreatment with verteporfin suppressed fragmentation-induced increases in CCN2, but not AMH, transcript levels. Juvenile mice were injected i.p. with verteporfin for 3 h before retrieving ovaries for fragmentation. At 4 h after incubation, transcript levels for CCN2 and AMH were determined by real-time RT-PCR. n=6-12. […] Ovaries from juvenile mice pre-injected with verteporf in for 3 h were fragmented and incubated for 1 h before grafting into FSH-treated hosts for 5 days followed by determination of graft weights. Numbers in parentheses are number of samples used. C, Follicle dynamics of intact and fragmented ovarian grafts from animals with or without verteporf in (VP) pretreatment. n=3-5. D, Incubation of fragmented ovaries with CCN2 antibodies suppressed ovarian weight increases. Paired ovaries were fragmented into 3 pieces followed by incubation with CCN2 antibodies or non-immune-IgG for 18 h before grafting for 5 days. Mean±SEM; *p<0.05.
Left upper panel: Paired ovaries from day 10 mice were treated with or without JASP (10 μM) for 30 min. before analyses of F- and G-actin content. Left lower panel: Real-time RT-PCR analyses of CCN2 transcript levels after 30 min. exposure to JASP. Right panel: Immunoblotting analyses of CCN2 protein levels after 30 min. treatment with JASP. Upper panel: Immunoblotting analyses. Lower panel: quantitative analyses of densitometric scanning data. Numbers in parentheses are number of samples used. * p<0.05. […]

ovaries from day 10 mice = assay: Ovarian explant cultures: ovarian weight and follicle dynamics; format: cell-based; settings: for ovarian explant weights: explants from day 10 mice cultured with CCN growth factors for 4 days
Method: FIG. 2. […] A, Ovarian fragmentation increased F-actin levels. Paired ovaries from day 10 mice were cut into 3 pieces or kept intact before immunoblotting analyses of F- and G-actin levels (upper panel). Lower panel: F- to G-actin ratios. N=6-11. B, Ovarian fragmentation decreased phospho-YAP(pYAP) levels and pYAP to total YAP ratios. Paired ovaries with or without cutting were incubated for 1 h, followed by immunoblotting. Left panel: representative immunoblots; Right panel: ratios of different antigens. n=8 pairs. C, Ovarian fragmentation increased expression of CCN growth factors and BIRC apoptosis inhibitors. Paired ovaries with or without cutting were incubated for 1 h […] before analyses of transcript levels normalized by GAPDH. Intact ovaries: solid lines; pooled 3 pieces: dashed lines. n=10-15. D, Ovarian fragmentation increased CCN2 proteins. Paired ovaries with or without cutting were incubated for 3-5 h before immunoblotting. Upper panel: representative blots; lower panel: quantitative analyses. N=3-5. E, Treatment with CCN2, 3, 5, and 6 increased ovarian explant weights. Explants from day 10 mice were cultured with different CCN growth factors for 4 days before weighing. n=5-6. Mean±SEM; * p<0.05. IN=Intact; PI=Pieces.
FIG. 6. Increased expression of CCN growth factors and BIRO inhibitors after ovarian fragmentation and the ability of CCN growth factors to promote follicle development. A, Ovarian fragmentation without subsequent grafting increased the expression of key CCN growth factors (CCN2, 3, 5, and 6) and apoptosis inhibitors (BIRC1 and 7). Paired ovaries from day 10 mice with or without cutting into 3 pieces were incubated for up to 7 h before analyses of transcript levels for different genes. Intact ovaries: solid lines; three pieces: dashed lines. n=10-15. B, Increases in CCN2 expression in somatic cells of fragmented ovaries. Paired ovaries from day 10 mice with or without cutting into 3 pieces were cultured for 1 h and then transplanted under kidney capsules. At 3 h after transplantation, ovaries were dissected followed by isolation of oocytes and somatic cells as previously described (2). CCN2 and GAPDH mRNA levels were measured by real-time RT-PCR (n=4). *, P<0.05 vs intact. C. Treatment with CCN growth factors promoted preantral follicle development in ovarian explants. Following explant cultures with different CCN growth factors, follicle dynamics were determined by counting the percentages of follicles at different developmental stages. Mean±SEM; *p<0.05, n=5.
Ovaries from day 10 mice were placed on culture plate insert (Millipore) and cultured in DMEM/F12 containing 0.1% BSA, 0.1% Albumax II, insulin-transferrin-selenium, 0.05 mg/ml L-ascorbic acid and penicillin-streptomycin for 4 days with medium changes after 2 days of culture as described. At the end of culture, ovarian weight was measured and some of the ovaries were embedded for histological analyses of follicle dynamics.
We tested the ability of S1P to promote follicle growth. […] We hypothesized that S1P acts through its receptors in granulosa cells to trigger actin polymerization, disrupt Hippo signaling and promote follicle growth.

PTEN = PTEN (Homo sapiens, UniProt P60484); settings: read-out: IC50, inhibits PTEN; cited from earlier work
Chain of PTEN (P60484 whole entry, the tested form may be a part): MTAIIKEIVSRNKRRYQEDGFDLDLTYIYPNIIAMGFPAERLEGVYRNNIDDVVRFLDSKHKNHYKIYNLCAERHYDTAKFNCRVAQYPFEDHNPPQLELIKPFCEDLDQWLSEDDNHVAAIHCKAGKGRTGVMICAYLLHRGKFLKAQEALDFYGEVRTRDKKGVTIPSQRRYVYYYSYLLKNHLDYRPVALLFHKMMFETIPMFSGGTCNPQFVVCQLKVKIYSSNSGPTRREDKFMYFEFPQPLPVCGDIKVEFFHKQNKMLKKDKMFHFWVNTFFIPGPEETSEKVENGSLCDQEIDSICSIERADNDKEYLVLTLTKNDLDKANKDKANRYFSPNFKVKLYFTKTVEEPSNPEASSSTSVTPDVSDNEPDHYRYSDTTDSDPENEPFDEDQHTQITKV

AMH transcripts = assay: Real-time RT-PCR of AMH transcripts after verteporfin pretreatment and ovarian fragmentation; format: in vivo; settings: day 10 mice injected i.p. for 3 h before fragmentation; 4 h after incubation
Method: as §1
(§2) Roles of Hippo signaling and CCN2 in fragmentationinduced follicle growth: YAP has no transcriptional activity and its actions are dependent on downstream transcriptional factors. […]

CCN2 transcripts = assay: Real-time RT-PCR of CCN2 transcripts after verteporfin pretreatment and ovarian fragmentation; format: in vivo; settings: day 10 mice injected i.p. for 3 h before fragmentation; 4 h after incubation
Method: as §1, §2

[1] = pretreatment for 3 h, grafting 5 days

CCCCCCCCCCCCC/C=C/[C@@H](O)[C@@H](N)COP(=O)(O)O [S1P, sphingosine 1-phosphate]
oocyte apoptosis induced by X-irradiation (oocytes): suppressed
graft weights (ovarian grafts; 6 μM S1P for 18 h, grafting into adult ovariectomized hosts for 5 days): increases in graft weights
ovarian weights in explant culture (ovaries from day 10 mice; 6 μM, 4 days, ovaries from day 10 mice): major increases in ovarian weights

O=C([O-])c1ccccn1.OO.OO.[K+].[K+].[OH-].[V] [dipotassium bisperoxo(picolinato)oxovanadate (V)]
IC50 (PTEN): 31 nM

OO.OO.[K+].[OH-].[V].c1cnc2c(c1)ccc1cccnc12 [potassium bisperoxo (1,10-phenanthroline)oxovanadate (V)]
IC50 (PTEN): 38 nM

dipotassium bisperoxo(5-hydroxypyridine-2-carboxyl)oxovanadate (V)
IC50 (PTEN): 14 nM

potassium bisperoxo(bipyridine)oxovanadate (V)
IC50 (PTEN): 18 nM

verteporfin
transcripts for anti-Müllerian hormone (AMH) (AMH transcripts): without affecting
fragmentation-induced increases in CCN2 transcripts (CCN2 transcripts): blocked
graft weights, intact versus fragmented pairs (ovarian grafts; pretreatment for 3 h, fragmentation, grafting into FSH-treated hosts for 5 days): no significant changes
antral/preovulatory follicles (ovarian grafts; [1]): smaller suppression
fragmentation induced increases in late secondary follicles (ovarian grafts; [1]): prevented
total follicles in grafts (ovarian grafts; [1]): no loss of total follicles

B1: CCN5: CCN growth factor protein (protein, UniProt O76076 24-250, looked up)
CCN family member 5: QLCPTPCTCPWPPPRCPLGVPLVLDGCGCCRVCARRLGEPCDQLHVCDASQGLVCQPGAGPGGRGALCLLAEDDSSCEVNGRLYREGETFQPHCSIRCRCEDGGFTCVPLCSEDVRLPSWDCPHPRRVEVLGKCCPEWVCGQGGGLGTQPLPAQGPQFSGLVSSLPPGVPCPEWSTAWGPCSTTCGLGMATRVSNQNRFCRLETQRRLCLSRPCPPSRGRSPQNSAF
ovarian explant weights (ovaries from day 10 mice): dose-dependent increases

B2: CCN2: CCN growth factor protein, acts downstream of disrupted Hippo signaling (protein, UniProt P29279 27-349, looked up)
CCN family member 2: QNCSGPCRCPDEPAPRCPAGVSLVLDGCGCCRVCAKQLGELCTERDPCDPHKGLFCHFGSPANRKIGVCTAKDGAPCIFGGTVYRSGESFQSSCKYQCTCLDGAVGCMPLCSMDVRLPSPDCPFPRRVKLPGKCCEEWVCDEPKDQTVVGPALAAYRLEDTFGPDPTMIRANCLVQTTEWSACSKTCGMGISTRVTNDNASCRLEKQSRLCMVRPCEADLEENIKKGKKCIRTPKISKPIKFELSGCTSMKTYRAKFCGVCTDGRCCTPHRTTTLPVEFKCPDGEVMKKNMMFIKTCACHYNCPGDNDIFESLYYRKMYGDMA
ovarian explant weights (ovaries from day 10 mice): dose-dependent increases

B3: CCN3: CCN growth factor protein (protein, UniProt P48745 32-357, looked up)
CCN family member 3: TQRCPPQCPGRCPATPPTCAPGVRAVLDGCSCCLVCARQRGESCSDLEPCDESSGLYCDRSADPSNQTGICTAVEGDNCVFDGVIYRSGEKFQPSCKFQCTCRDGQIGCVPRCQLDVLLPEPNCPAPRKVEVPGECCEKWICGPDEEDSLGGLTLAAYRPEATLGVEVSDSSVNCIEQTTEWTACSKSCGMGFSTRVTNRNRQCEMLKQTRLCMVRPCEQEPEQPTDKKGKKCLRTKKSLKAIHLQFKNCTSLHTYKPRFCGVCSDGRCCTPHNTKTIQAEFQCSPGQIVKKPVMVIGTCTCHTNCPKNNEAFLQELELKTTRGKM
ovarian explant weights (ovaries from day 10 mice): dose-dependent increases

B4: CCN6: CCN growth factor protein (protein, UniProt O95389 24-354, looked up)
Cellular communication …: TGPLDTTPEGRPGEVSDAPQRKQFCHWPCKCPQQKPRCPPGVSLVRDGCGCCKICAKQPGEICNEADLCDPHKGLYCDYSVDRPRYETGVCAYLVAVGCEFNQVHYHNGQVFQPNPLFSCLCVSGAIGCTPLFIPKLAGSHCSGAKGGKKSDQSNCSLEPLLQQLSTSYKTMPAYRNLPLIWKKKCLVQATKWTPCSRTCGMGISNRVTNENSNCEMRKEKRLCYIQPCDSNILKTIKIPKGKTCQPTFQLSKAEKFVFSGCSSTQSYKPTFCGICLDKRCCIPNKSKMITIQFDCPNEGSFKWKMLWITSCVCQRNCREPGDIFSELKIL
ovarian explant weights (ovaries from day 10 mice): dose-dependent increases
